{"source": "ChEMBL document CHEMBL5154741", "about": "“Antibacterial alkylguanidino ureas: Molecular simplification approach, searching for membrane-based MoA” (Eur J Med Chem, 2022)", "assay_type_in_all_cases": "ADME, cell membranes", "details_in_all_cases": "pH 7.4, 5 h", "key": {"[1]": {"assay": "Apparent permeability of the compound across bacterial inner membrane mimic PC-phospholipids in PBS buffer assessed as membrane retention at pH 7.4 incubated for 5 hrs in presence of 1,3-bis(8-carbamimidamidooctyl)-1,3-bis({8-[N'-(cyclopropylmethyl)carbamimidamido]octyl})urea by PAMPA based UV-Vis spectrophotometric analysis"}, "[2]": {"assay": "Apparent permeability of the compound across bacterial inner membrane mimic PC-phospholipids in PBS buffer assessed as membrane retention at pH 7.4 incubated for 5 hrs by PAMPA based UV-Vis spectrophotometric analysis"}, "[3]": {"assay": "(§1) Apparent permeability of the compound across bacterial inner membrane mimic pure POPG in PBS buffer assessed as membrane retention at pH 7.4 incubated for 5 hrs by PAMPA based UV-Vis spectrophotometric analysis"}, "[4]": {"assay": "(§2) Apparent permeability of the compound across bacterial inner membrane mimic POPE/POPG (6:4) in PBS buffer assessed as membrane retention at pH 7.4 incubated for 5 hrs by PAMPA based UV-Vis spectrophotometric analysis"}, "[5]": {"assay": "(§3) Apparent permeability of the compound across bacterial inner membrane mimic PC-phospholipids in PBS buffer assessed as membrane retention at pH 7.4 incubated for 5 hrs in presence of {8-[N'(cyclopropylmethyl)carbamimidamido]octyl}urea trifluoroacetate salt by PAMPA based UV-Vis spectrophotometric analysis"}, "[6]": {"assay": "Apparent permeability of the compound across bacterial inner membrane mimic PC-phospholipids in PBS buffer assessed as membrane retention at pH 7.4 incubated for 5 hrs in presence of 1,1-bis({6-[N'-(cyclopropylmethyl)carbamimidamido]hexyl})-3-{8-[N'-(cyclopropylmethyl)carbamimidamido]octyl}-3-octylurea by PAMPA based UV-Vis spectrophotometric analysis"}, "[7]": {"assay": "as §3, with “1,3-bis(8-aminooctyl)-1,3-bis(8- carbamimidamidooctyl)urea” for “{8-[N'(cyclopropylmethyl)carbamimidamido]octyl}urea”"}, "[8]": {"assay": "as §3, with “1,3,3-tris(8-carbamimidamidooctyl)-1-{8-[N'-(cyclopropylmethyl)carbamimidamido]octyl}urea” for “{8-[N'(cyclopropylmethyl)carbamimidamido]octyl}urea”"}, "[9]": {"assay": "as §1, with “hrs in presence of 1,3-bis(8-carbamimidamidooctyl)-1,3-bis({8-[N'-(cyclopropylmethyl)carbamimidamido]octyl})urea” for “hrs”"}, "[10]": {"assay": "(§4) Apparent permeability of the compound across bacterial inner membrane mimic pure POPG in PBS buffer assessed as membrane retention at pH 7.4 incubated for 5 hrs in presence of {8-[N'(cyclopropylmethyl)carbamimidamido]octyl}urea trifluoroacetate salt by PAMPA based UV-Vis spectrophotometric analysis"}, "[11]": {"assay": "as §1, with “hrs in presence of 1,1-bis({6-[N'-(cyclopropylmethyl)carbamimidamido]hexyl})-3-{8-[N'-(cyclopropylmethyl)carbamimidamido]octyl}-3-octylurea” for “hrs”"}, "[12]": {"assay": "as §4, with “1,3-bis(8-aminooctyl)-1,3-bis(8- carbamimidamidooctyl)urea” for “{8-[N'(cyclopropylmethyl)carbamimidamido]octyl}urea”"}, "[13]": {"assay": "as §4, with “1,3,3-tris(8-carbamimidamidooctyl)-1-{8-[N'-(cyclopropylmethyl)carbamimidamido]octyl}urea” for “{8-[N'(cyclopropylmethyl)carbamimidamido]octyl}urea”"}, "[14]": {"assay": "as §2, with “hrs in presence of 1,3-bis(8-carbamimidamidooctyl)-1,3-bis({8-[N'-(cyclopropylmethyl)carbamimidamido]octyl})urea” for “hrs”"}, "[15]": {"assay": "as §3, with “POPE/POPG (6:4)” for “PC-phospholipids”"}, "[16]": {"assay": "as §2, with “hrs in presence of 1,1-bis({6-[N'-(cyclopropylmethyl)carbamimidamido]hexyl})-3-{8-[N'-(cyclopropylmethyl)carbamimidamido]octyl}-3-octylurea” for “hrs”"}, "[17]": {"assay": "as §2, with “hrs in presence of 1,3-bis(8-aminooctyl)-1,3-bis(8- carbamimidamidooctyl)urea trifluoroacetate salt” for “hrs”"}, "[18]": {"assay": "as §2, with “hrs in presence of 1,3,3-tris(8-carbamimidamidooctyl)-1-{8-[N'-(cyclopropylmethyl)carbamimidamido]octyl}urea trifluoroacetate salt” for “hrs”"}}}
{"smiles": "Cn1c(=O)c2c(ncn2C)n(C)c1=O", "note": "[CAFFEINE]", "values": [{"measurement": "R%", "setting": "[1]", "result": 12.6, "unit": "%"}, {"measurement": "R%", "setting": "[2]", "result": 3.2, "unit": "%"}, {"measurement": "R%", "setting": "[3]", "result": 4.5, "unit": "%"}, {"measurement": "R%", "setting": "[4]", "result": 3.3, "unit": "%"}, {"measurement": "R%", "setting": "[5]", "result": 12.8, "unit": "%"}, {"measurement": "R%", "setting": "[6]", "result": 0, "unit": "%"}, {"measurement": "R%", "setting": "[7]", "result": 15.8, "unit": "%"}, {"measurement": "R%", "setting": "[8]", "result": 8.1, "unit": "%"}, {"measurement": "R%", "setting": "[9]", "result": 13.5, "unit": "%"}, {"measurement": "R%", "setting": "[10]", "result": 13.4, "unit": "%"}, {"measurement": "R%", "setting": "[11]", "result": 14.7, "unit": "%"}, {"measurement": "R%", "setting": "[12]", "result": 17.1, "unit": "%"}, {"measurement": "R%", "setting": "[13]", "result": 14.6, "unit": "%"}, {"measurement": "R%", "setting": "[14]", "result": 12.6, "unit": "%"}, {"measurement": "R%", "setting": "[15]", "result": 17.5, "unit": "%"}, {"measurement": "R%", "setting": "[16]", "result": 16.7, "unit": "%"}, {"measurement": "R%", "setting": "[17]", "result": 16.5, "unit": "%"}, {"measurement": "R%", "setting": "[18]", "result": 19, "unit": "%"}]}
